Data reported in patent publication US10266489B2, “Pyrrolic amide compound and preparation method and application thereof” (HitGen LTD, priority 2014, dated 2019).

Key:
Li7 cells = experiment: Determination of cell growth inhibition, CCK-8, Li-7; type: cell-based; conditions: Li-7 hepatoma cells, 72 hours, highest measured IC50 of single or multiple operations
Description: (§1) Test example 2 Cell determination-determination of cell growth inhibition Materials and reagents HepG2 cell strains, Hep3B cell strains, Huh7 cell strains and Li7 cell strains are purchased from Shanghai Institutes for Biological Sciences of Chinese Academy of Sciences; DMEM high glucose media and MEM media are purchased from Hyclone; fetal calf serum is purchased from Gibco Company; trypsin is purchased from Invitrogen Shanghai; CCK-8 kits are purchased from Beyotime Institute of Biotechnology; and other consumables such as cell-culture dishes and the like are purchased from Corning China. […]
(§2) comprising the steps: digesting HepG2 cells, Hep3B Huh7 cells and Li7 cells in logarithmic phases by using the trypsin; after counting the cells by taking uniform cell suspension, adjusting cell density to 1500 cells/pore by using a culture medium containing 10% of serum, and re-inoculating into a 96-pore cell culture plate, wherein the culture volume is 200 μL; incubating in a 5% CO2 incubator at a temperature of 37° C.; and culturing for 24 hours for experiments. […]
(§3) comprising the steps: taking the cells cultured for 24 hours from the incubator, sucking culture solution in the pore plate, adding 200 μL of compound solution prepared by using a culture medium containing 10% of the fetal calf serum into each pore, enabling five pores of each concentration to be parallel, setting DMSO at negative control, and incubating in the 5% CO2 incubator at a temperature of 37° C. for 72 hours for performing CCK-8 detection. […]
(§4) comprising the steps: taking a serum-free medium and a CCK-8 solution, and preparing a CCK-8 working solution according to a ratio of 10:1 (the process needs to be protected from light); taking the cells cultured for 72 hours from the incubator, sucking culture solution in the pore plate, adding 120 μL of the CCK-8 working solution into each pore, adding 120 μL of the CCK-8 working solution into a cell-free pore plate to serve as blank control, and incubating in the 5% CO2 incubator at a temperature of 37° C. for one hour (the process needs to be protected from light ); and […]
(§5) taking the pore plate from the incubator, sucking 100 μL of solution from each pore into a new 96-pore plate, and reading absorbancy at 450 nm (the process needs to he protected from light).
(§6) Tx: absorbancy measured in CCK-8 within 72 hours after compound effect
(§7) C: absorbancy measured m CCK-8 within 72 hours after culturing in negative control pores B: absorbancy measured CCK-8 in blank control pores
(§8) The compounds 1-19 prepared in the embodiments are operated in the above determination, and test results are shown in Table 3, wherein the highest measured IC50 values of the various compounds during single or multiple operations are classified as specified, as shown in Table 3: […]

Hep3B cells = experiment: Determination of cell growth inhibition, CCK-8, Hep3B; type: cell-based; conditions: Homo sapiens, Hep3B hepatoma cells, 72 hours, highest measured IC50 of single or multiple operations
Description: as §1, §2, §3, §4, §5, §6, §7, §8

[1] = target: T1, histone deacetylase 6 (HDAC6) (Homo sapiens, UniProt Q9UBN7); experiment: Detection of enzyme viability of histone deacetylase 6 (fluorogenic substrate deacetylation); type: biochemical; conditions: 0.35 ng/μL HDAC 6, 20 μM substrate, 37° C.
T1 construct: purchased BPS Bioscience 50076
T1 sequence (Q9UBN7 1-1215): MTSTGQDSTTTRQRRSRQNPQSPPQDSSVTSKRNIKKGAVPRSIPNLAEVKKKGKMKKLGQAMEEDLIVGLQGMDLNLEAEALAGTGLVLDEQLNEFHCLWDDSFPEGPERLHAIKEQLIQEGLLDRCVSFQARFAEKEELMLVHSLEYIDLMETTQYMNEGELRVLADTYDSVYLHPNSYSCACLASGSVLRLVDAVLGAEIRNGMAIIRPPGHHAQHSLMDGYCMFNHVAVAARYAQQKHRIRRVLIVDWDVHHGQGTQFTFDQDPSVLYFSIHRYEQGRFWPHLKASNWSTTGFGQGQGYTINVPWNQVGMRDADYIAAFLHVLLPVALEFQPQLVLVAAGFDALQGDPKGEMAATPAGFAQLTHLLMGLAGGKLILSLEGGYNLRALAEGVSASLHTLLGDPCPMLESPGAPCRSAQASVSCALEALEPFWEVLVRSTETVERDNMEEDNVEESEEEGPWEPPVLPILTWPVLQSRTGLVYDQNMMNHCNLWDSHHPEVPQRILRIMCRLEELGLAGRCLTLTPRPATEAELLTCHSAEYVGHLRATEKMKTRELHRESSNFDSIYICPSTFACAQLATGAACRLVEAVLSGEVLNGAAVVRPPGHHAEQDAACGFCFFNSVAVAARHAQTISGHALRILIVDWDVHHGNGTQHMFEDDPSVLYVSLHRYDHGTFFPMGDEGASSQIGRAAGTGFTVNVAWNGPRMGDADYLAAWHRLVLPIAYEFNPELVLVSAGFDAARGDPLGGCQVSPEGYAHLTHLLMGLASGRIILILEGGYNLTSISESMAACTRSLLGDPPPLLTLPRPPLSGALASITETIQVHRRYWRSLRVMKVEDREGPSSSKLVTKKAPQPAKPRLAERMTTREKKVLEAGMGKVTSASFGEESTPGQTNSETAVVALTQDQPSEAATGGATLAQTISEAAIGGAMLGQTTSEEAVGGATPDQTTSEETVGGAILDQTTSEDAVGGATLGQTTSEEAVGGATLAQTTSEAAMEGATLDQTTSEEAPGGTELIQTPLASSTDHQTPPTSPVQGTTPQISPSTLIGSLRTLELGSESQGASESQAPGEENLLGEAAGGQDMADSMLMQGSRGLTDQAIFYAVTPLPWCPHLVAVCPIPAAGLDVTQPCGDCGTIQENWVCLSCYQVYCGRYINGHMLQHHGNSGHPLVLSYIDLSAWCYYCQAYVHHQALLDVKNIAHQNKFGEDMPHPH
Description: HDAC inhibitory viabilities of the compounds in the present invention are detected in detection of substrate deacetylation.
A: Detection of enzyme viability of histone deacetylase 6 (#50076, BPS Bioscience):
Acetyl of HDAC 6 on a substrate is removed, so that the substrate is activated and can be affected by a subsequently added developing solution, and fluorophore is released. The size of a fluorescence signal reflects the viability of the HDAC 6. An IC50 detection method of the enzyme is disclosed in Chuping Xu, Elisabetta Soragni improved Histone Deacetylase Inhibitors as Therapeutics for the Neurdegenerative DiseaseEriedreich's Ataxia: A New Synthetic Route. A total reaction system (100 μL/well) contains 0.35 ng/μL of HDAC 6, 20 μM of substrate and compounds of different concentrations. The fluorescence signal is measured within 30 minutes after incubation at a temperature of 37° C., inhibitory effects of the compounds are determined from the obtained data and mapped with the compound concentrations to obtain a concentration response curve, and the IC50 value is fitted according to a four-parameter model.
The compounds 1-19 prepared in the embodiments are subjected to detection of enzyme viability of histone deacetylase 6 (i.e., HDAC6) according to the method above. Test results are shown in Table 2, wherein the measured IC50 values of the compounds are classified as specified, as shown in Table 2: […]

HepG2 cells = experiment: Determination of cell growth inhibition, CCK-8, HepG2; type: cell-based; conditions: Homo sapiens, HepG2 hepatoma cells, 72 hours, highest measured IC50 of single or multiple operations
Description: as §1, §2, §3, §4, §5, §6, §7, §8

Huh7 cells = experiment: Determination of cell growth inhibition, CCK-8, Huh-7; type: cell-based; conditions: Homo sapiens, Huh-7 hepatoma cells, 72 hours, highest measured IC50 of single or multiple operations
Description: as §1, §2, §3, §4, §5, §6, §7, §8

| Compound | IC50 (Li7 cells) [µM] | IC50 (Hep3B cells) [µM] | IC50 [1] [µM] | IC50 (HepG2 cells) [µM] | IC50 (Huh7 cells) [µM] |
| --- | --- | --- | --- | --- | --- |
| N#Cc1ccc(S(=O)(=O)N2CC=C(C(=O)NO)C2)cc1 [Compound 1, N-hydroxy-1-((4-benzene-cyano)sulfonyl) 2,5-dihydro-1H-pyrrole-3-formamide] | > 10 | > 10 | 0.1 to 0.3 | > 10 | > 10 |
| O=C(NO)C1=CCN(S(=O)(=O)c2ccc(C(=O)O)cc2)C1 [Compound 7] | > 10 | > 10 | < 0.1 | > 10 | > 10 |
| CNC(=O)c1ccc(S(=O)(=O)N2CC=C(C(=O)NO)C2)cc1 [Compound 9, N-hydroxy-1-((4-(methylaminecarbonyl)phenyl)sulfonyl) 2,5-dihydro-1H-pyrrole-3-formamide] | > 10 | > 10 | < 0.1 | > 10 | > 10 |
| CC(=O)Nc1ccc(S(=O)(=O)N2CC=C(C(=O)NO)C2)cc1 [Compound 10, N-hydroxy-1-((4-acetamido-phenyl)sulfonyl) 2,5-dihydro-1H-pyrrole-3-formamide] | > 10 | > 10 | < 0.1 | > 10 | > 10 |
| O=C(NO)C1=CCN(S(=O)(=O)c2ccc(F)cc2)C1 [Compound 11, N-hydroxy-1-((4-fluoro-phenyl)sulfonyl) 2,5-dihydro-1H-pyrrole-3-formamide] | > 10 | > 10 | < 0.1 | > 10 | > 10 |
| O=C(NO)C1=CCN(S(=O)(=O)c2cccc(F)c2)C1 [Compound 12, N-hydroxy-1-((3-fluoro-phenyl)sulfonyl) 2,5-dihydro-1H-pyrrole-3-formamide] | > 10 | > 10 | < 0.1 | < 10 | > 10 |
| COc1ccc(S(=O)(=O)N2CC=C(C(=O)NO)C2)cc1 [Compound 13, N-hydroxy-1-((4-methoxy-phenyl)sulfonyl) 2,5-dihydro-1H-pyrrole-3-formamide] | < 10 | < 10 | < 0.1 | < 10 | > 10 |
| COc1cccc(S(=O)(=O)N2CC=C(C(=O)NO)C2)c1 [Compound 14, N-hydroxy-1-((3-methoxy-phenyl)sulfonyl) 2,5-dihydro-1H-pyrrole-3-formamide] | < 10 | < 10 | < 0.1 | < 10 | > 10 |
| Cc1ccc(S(=O)(=O)N2CC=C(C(=O)NO)C2)cc1 [Compound 15, N-hydroxy-1-((4-methylphenyl)sulfonyl)2,5-dihydro-1H-pyrrole-3-formamide] | < 10 | < 10 | < 0.1 | < 10 | > 10 |
| Cc1cccc(S(=O)(=O)N2CC=C(C(=O)NO)C2)c1 [Compound 16, N-hydroxy-1-((3-methylphenyl)sulfonyl)2,5-dihydro-1H-pyrrole-3-formamide] | > 10 | > 10 | < 0.1 | < 10 | > 10 |
| COc1ccc(S(=O)(=O)N2CC=C(C(=O)NO)C2)cc1OC [Compound 17, N-hydroxy-1-((3,4-dimethoxyphenyl)sulfonyl) 2,5-dihydro-1H-pyrrole-3-formamide] | > 10 | > 10 | 0.1 to 0.3 | > 10 | > 10 |
| O=C(NO)C1=CCN(S(=O)(=O)c2ccc(C3=CCNCC3)cc2)C1 [Compound 18, N-hydroxy-1-((4-(1,2,3,6-tetrahydro-pyridine-4-yl)phenyl)sulfonyl) 2,5-dihydro-1H-pyrrole-3-formamide] | > 10 | > 10 | 0.1 to 0.3 | > 10 | > 10 |
| Nc1ccccc1NC(=O)C1=CCN(S(=O)(=O)c2ccccc2)C1 [Compound 19, N-(2-aminophenyl)-1-(benzenesulfonyl)-2,5-dihydro-1H-pyrrole-3-formamide] | > 10 | > 10 | > 0.5 | > 10 | > 10 |
